Laboratory results taken from patent US20250099474A1 (priority 2022, published 2025).
Where two headings read alike, the source gives them in different places.

Test system: SARS-CoV-2
Type: in vivo, human
Conditions: Phase 3 Part; for Time to resolution of five COVID-19 symptoms: Maximum value / Time to resolution of 12 COVID-19 symptoms: Maximum value / Time to resolution of 14 COVID-19 symptoms: Maximum value: +: includes censored data
Procedure: The primary endpoint of Phase 3 Part was the time to resolution of five COVID-19 symptoms in mild/moderate SARS-CoV-2-infected patients, and the efficacy was verified by evaluation of the five COVID-19 symptoms in four grades (0: none, 1: mild, 2: moderate, 3: severe) by the patients themselves.
The 750/250 mg group received 750 mg on Day 1 as a loading dose and 250 mg on Days 2 to 5 as a maintenance dose.
The primary efficacy endpoint of Phase 3 Part for mild/moderate SARS-CoV-2-infected patients was the time to resolution of the five COVID-19 symptoms.
Existing symptoms that existed before the onset of COVID-19 and were determined by the subject to be worsening at the baseline (pre-administration test) time point had to be improved […] from the severity at the baseline time point. • Severity at baseline was “severe”→“moderate”, “mild”, or “none” • Severity at baseline was “moderate”→“mild”, or “none” • Severity at baseline was “mild”→[…] “none” • Existing symptoms that existed before the onset of COVID-19 and were determined by the subject not to be worsening at the baseline (pre-administration test) time point had to be maintained or improved from the severity at the baseline time point. • Severity at baseline was “severe”->“severe”, “moderate”, “mild”, or “none” • Severity at baseline was “moderate”->“moderate”, “mild”, or “none” • Severity at baseline was “mild”→“mild”, or “none” • Regarding symptoms other than the above, that is, symptoms that were not present before the onset of COVID-19 and developed at or after the baseline (pre-administration test) time point, such symptoms had to be eliminated. • Severity at baseline was “severe”, “moderate”, or “mild”→“none”
As the key secondary analysis of the primary endpoint, the same analysis as the primary analysis was performed for the population of the mild/moderate SARS-CoV-2-infected patients in the ITT population.

[1] = ITT, onset to randomization less than 72 hours, 375/125 mg group
[2] = mild/moderate patients, ITT population, 375/125 mg group
[3] = mild/moderate patients, ITT population, 750/250 mg group
[4] = mild/moderate patients, ITT, onset to randomization less than 72 hours, 375/125 mg group
[5] = mild/moderate patients, ITT, onset to randomization less than 72 hours, 375/125 mg group, 336 cases analyzed
[6] = mild/moderate patients, ITT, onset to randomization less than 72 hours, 750/250 mg group
[7] = mild/moderate patients, ITT, onset to randomization less than 72 hours, 750/250 mg group, 330 cases analyzed

SMILES: Cn1cnc(Cn2c(=O)[nH]/c(=N\c3cc4cn(C)nc4cc3Cl)n(Cc3cc(F)c(F)cc3F)c2=O)n1 [(6E)-6-[(6-chloro-2-methyl-2H-indazol-5-yl)imino]-3-[(1-methyl-1H-1,2,4-triazol-3-yl)methyl]-1-[(2,4,5-trifluorophenyl)methyl]-1,3,5-triazinane-2,4-dione]
- Time to resolution of the five symptoms of COVID-19 shortened as the median value compared with placebo group by (ITT population, 375/125 mg group): 10.6 h
- Time to resolution of 12 COVID-19 symptoms reduced compared to placebo group by a median of [1]: 34.0 h
- Time to resolution of 14 COVID-19 symptoms reduced compared to placebo group by a median of [1]: 44.1 h
- Time to resolution of the five COVID-19 symptoms shortened as the median compared with placebo group by [1]: 24.3 h
- Time to resolution of the five symptoms of COVID-19, significance vs placebo (mild/moderate patients, ITT population): no significant difference was observed
- Time to resolution of five COVID-19 symptoms: 25% point [2]: 104.3, — hour
- Time to resolution of five COVID-19 symptoms: Difference of RMST (vs placebo) [2]: -5.6 h
- Time to resolution of five COVID-19 symptoms: Difference of median value (vs placebo) [2]: -10.6 h
- Time to resolution of five COVID-19 symptoms: Kaplan-Meier median value [2]: 189.7 h
- Time to resolution of five COVID-19 symptoms: Minimum value [2]: 2.4 h
- Time to resolution of five COVID-19 symptoms: Number of events (value in parentheses) [2]: (73.0)
- Time to resolution of five COVID-19 symptoms: Restricted mean survival time during 21 days (RMST) [2]: 254.4 h
- Time to resolution of five COVID-19 symptoms: Number of events (mild/moderate patients, ITT population, 375/125 mg group, 582 cases analyzed): 425
- Time to resolution of five COVID-19 symptoms: Maximum value [2]: 493.3 h
- Time to resolution of five COVID-19 symptoms: 25% point [3]: 99.2 h
- Time to resolution of five COVID-19 symptoms: 75% point [3]: 434.8 h
- Time to resolution of five COVID-19 symptoms: Difference of RMST (vs placebo) [3]: -14.9 h
- Time to resolution of five COVID-19 symptoms: Difference of median value (vs placebo) [3]: -23.0 h
- Time to resolution of five COVID-19 symptoms: Kaplan-Meier median value [3]: 177.3 h
- Time to resolution of five COVID-19 symptoms: Minimum value [3]: 9.4 h
- Time to resolution of five COVID-19 symptoms: Number of events (value in parentheses) [3]: (75.3)
- Time to resolution of five COVID-19 symptoms: Restricted mean survival time during 21 days (RMST) [3]: 245.1 h
- Time to resolution of five COVID-19 symptoms: Number of events (mild/moderate patients, ITT population, 750/250 mg group, 575 cases analyzed): 433
- Time to resolution of five COVID-19 symptoms: Maximum value [3]: 493.1 h
- Time to resolution of 12 COVID-19 symptoms: 25% point [4]: 105.6, — hour
- Time to resolution of 12 COVID-19 symptoms: Difference of RMST (vs placebo) [4]: -16.9 h
- Time to resolution of 12 COVID-19 symptoms: Difference of median value (vs placebo) [4]: -34.0 h
- Time to resolution of 12 COVID-19 symptoms: Kaplan-Meier median value [4]: 179.2 h
- Time to resolution of 12 COVID-19 symptoms: Minimum value [4]: 2.4 h
- Time to resolution of 12 COVID-19 symptoms: Number of events (value in parentheses) [4]: (72.6)
- Time to resolution of 12 COVID-19 symptoms: Restricted mean survival time during 21 days (RMST) [4]: 253.9 h
- Time to resolution of 14 COVID-19 symptoms: 25% point [4]: 105.6, — hour
- Time to resolution of 14 COVID-19 symptoms: Difference of RMST (vs placebo) [4]: -20.1 h
- Time to resolution of 14 COVID-19 symptoms: Difference of median value (vs placebo) [4]: -44.1 h
- Time to resolution of 14 COVID-19 symptoms: Kaplan-Meier median value [4]: 187.8 h
- Time to resolution of 14 COVID-19 symptoms: Minimum value [4]: 2.4 h
- Time to resolution of 14 COVID-19 symptoms: Number of events (value in parentheses) [4]: (71.7)
- Time to resolution of 14 COVID-19 symptoms: Restricted mean survival time during 21 days (RMST) [4]: 257.9 h
- Time to resolution of five COVID-19 symptoms: 25% point [4]: 99.5 h
- Time to resolution of five COVID-19 symptoms: 75% point [4]: 424.8 h
- Time to resolution of five COVID-19 symptoms: Difference of RMST (vs placebo) [4]: -19.4 h
- Time to resolution of five COVID-19 symptoms: Difference of median value (vs placebo) [4]: -24.3 h
- Time to resolution of five COVID-19 symptoms: Kaplan-Meier median value [4]: 167.9 h
- Time to resolution of five COVID-19 symptoms: Minimum value [4]: 2.4 h
- Time to resolution of five COVID-19 symptoms: Number of events (value in parentheses) [4]: (75.6)
- Time to resolution of five COVID-19 symptoms: Restricted mean survival time during 21 days (RMST) [4]: 241.6 h
- Time to resolution of 12 COVID-19 symptoms: Number of events [5]: 244
- Time to resolution of 14 COVID-19 symptoms: Number of events [5]: 241
- Time to resolution of five COVID-19 symptoms: Number of events [5]: 254
- Time to resolution of 12 COVID-19 symptoms: Maximum value [4]: 489.1 h
- Time to resolution of 14 COVID-19 symptoms: Maximum value [4]: 489.1 h
- Time to resolution of five COVID-19 symptoms: Maximum value [4]: 489.1 h
- Time to resolution of 12 COVID-19 symptoms: 25% point [6]: 114.2 h
- Time to resolution of 12 COVID-19 symptoms: 75% point [6]: 422.7 h
- Time to resolution of 12 COVID-19 symptoms: Difference of RMST (vs placebo) [6]: -20.8 h
- Time to resolution of 12 COVID-19 symptoms: Difference of median value (vs placebo) [6]: -28.3 h
- Time to resolution of 12 COVID-19 symptoms: Kaplan-Meier median value [6]: 184.9 h
- Time to resolution of 12 COVID-19 symptoms: Minimum value [6]: 9.4 h
- Time to resolution of 12 COVID-19 symptoms: Number of events (value in parentheses) [6]: (78.2)
- Time to resolution of 12 COVID-19 symptoms: Restricted mean survival time during 21 days (RMST) [6]: 249.9 h
- Time to resolution of 14 COVID-19 symptoms: 25% point [6]: 117.1 h
- Time to resolution of 14 COVID-19 symptoms: 75% point [6]: 431.6 h
- Time to resolution of 14 COVID-19 symptoms: Difference of RMST (vs placebo) [6]: -22.0 h
- Time to resolution of 14 COVID-19 symptoms: Difference of median value (vs placebo) [6]: -41.5 h
- Time to resolution of 14 COVID-19 symptoms: Kaplan-Meier median value [6]: 190.3 h
- Time to resolution of 14 COVID-19 symptoms: Minimum value [6]: 9.4 h
- Time to resolution of 14 COVID-19 symptoms: Number of events (value in parentheses) [6]: (77.3)
- Time to resolution of 14 COVID-19 symptoms: Restricted mean survival time during 21 days (RMST) [6]: 256.0 h
- Time to resolution of five COVID-19 symptoms: 25% point [6]: 96.7 h
- Time to resolution of five COVID-19 symptoms: 75% point [6]: 360.9 h
- Time to resolution of five COVID-19 symptoms: Difference of RMST (vs placebo) [6]: -26.1 h
- Time to resolution of five COVID-19 symptoms: Difference of median value (vs placebo) [6]: -21.0 h
- Time to resolution of five COVID-19 symptoms: Kaplan-Meier median value [6]: 171.2 h
- Time to resolution of five COVID-19 symptoms: Minimum value [6]: 9.4 h
- Time to resolution of five COVID-19 symptoms: Number of events (value in parentheses) [6]: (79.6)
- Time to resolution of five COVID-19 symptoms: Restricted mean survival time during 21 days (RMST) [6]: 234.8 h
- Time to resolution of five COVID-19 symptoms: Number of events (mild/moderate patients, ITT, onset to randomization less than 72 hours, 750/250 mg group, 329 cases analyzed): 262
- Time to resolution of 12 COVID-19 symptoms: Number of events [7]: 258
- Time to resolution of 14 COVID-19 symptoms: Number of events [7]: 255
- Time to resolution of 12 COVID-19 symptoms: Maximum value [6]: 490.1 h
- Time to resolution of 14 COVID-19 symptoms: Maximum value [6]: 490.1 h
- Time to resolution of five COVID-19 symptoms: Maximum value [6]: 490.1 h
